“Also recorded” adds a separate entry of the source.
Tests used:
[1] = target: T1, Bcl-2 protein (Homo sapiens, UniProt P10415); assay: Bcl-2 competition binding assay (fluorescence polarization, Flu-1193 probe); details: for concentration-dependent competition binding: increasing compound concentrations, HA14-1 1 to 100 μM
T1 construct: purified soluble Bcl-2 proteins purchased from Santa Cruz Biotechnology, Inc., Calif; purchased Santa Cruz Biotechnology, Inc

[2] = test system: 697 cells; assay: DNA fragmentation assay in 697 cells; assay type: cell-based, human; details: 50 μM, 48 hours
Procedure: The Bcl-transfected cells were incubated with Bcl-2 inhibitor test compounds at 50 μM for 24 hours and then examined for apoptosis by the following DNA fragmentation assay. Then the treated cells were washed in PBS, lysed in digestion buffer (100 mM NaCl, 10 mM Tris-Cl, pH8, 25 mM EDTA, pH 8, 0.5% SDS, 0.1 mg/ml proteinase K), and incubated overnight at 50° C. The samples were extracted three times with phenol-chloroform, precipitated with an equal volume isopropanol, and spun down for 15 minutes in a microcentrifuge at room temperature. The DNA precipitate was washed once with 70% ethanol and resuspended in TE buffer containing 200 μg/ml DNase-free RNase A (Boehringer Mannheim, Indianapolis, Ind.). Alter incubation at 37° C. for 30 min., the DNA was loaded into a 2% agarose mini-gel with 2 μg/ml ethidium bromide, and electrophoresis is run at 50 V for 2 hours in 0.5×TBE buffer. The gel was destained with water for 1 hour arid photographed under UV light.
First, the ethidium bromide stain concentration was 1 μg/ml instead of 2 μg/ml. Second, the cells for the assay comprised 697 cells. The 697 line is a human pre-B leukemia line with a t(1; 19) chromosomal translocation (no translocation involving Bcl-2). Bcl-2 is highly expressed in this line. The high expression of Bcl-2 in 697 cells was confirmed by protein immunoblot analysis (data not shown). […] DNA markers were phiX174 DNA with restriction endonuclease Hae III (Boehringer Mannheim, Indianapolis, Ind.). The cells were incubated with test compound at 50 μM concentration or Taxol at 5 μM concentration for 48 hours.

[3] = test system: HL-60 cell line transfected with Bcl-2; assay: DNA fragmentation assay in Bcl-2-transfected HL-60 cells; assay type: cell-based, human; details: for DNA fragmentation (reversal of Bcl-2 block of apoptosis): 50 μM, 24 hours
[4] = test system: HL-60 neo line; assay: Control apoptosis experiment in HL-60 neo line; assay type: cell-based, human; details: 50 μM
[5] = test system: 697 cells; details: positive control; cited from earlier work
[6] = test system: HL-60 cell line transfected with Bcl-2; details: 50 μM etoposide; cited from earlier work
[7] = test system: HL-60 cell line (parent line); details: 50 μM etoposide; cited from earlier work

T1 sequence (P10415 1-205 limits assumed): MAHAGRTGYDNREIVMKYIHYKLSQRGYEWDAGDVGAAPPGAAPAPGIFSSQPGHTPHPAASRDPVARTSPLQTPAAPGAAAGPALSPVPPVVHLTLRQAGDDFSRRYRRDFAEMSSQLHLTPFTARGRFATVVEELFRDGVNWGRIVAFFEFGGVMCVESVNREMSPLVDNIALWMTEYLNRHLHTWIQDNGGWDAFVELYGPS

COc1ccc(CCNC(=O)c2sc3c([N+](=O)[O-])cc(C(F)(F)F)cc3[n+]2[O-])cc1OC [HA02]
concentration-dependent competition binding [1]: clear concentration-dependent competition binding was observed
Kd ([1]; read-out: binding affinity (KD)): 15 µM
DNA fragmentation / apoptosis induction [2]: induced DNA fragmentation to various extents

O=C1c2ccccc2SC(c2ccccc2)C1CN1CCN(C(C(=O)O)C(=O)O)CC1 (stereo not shown) [HA03]
concentration-dependent competition binding [1]: clear concentration-dependent competition binding was observed

Nc1nc(N)c2c(Oc3ccccc3)cccc2n1 [HA04]
concentration-dependent competition binding [1]: clear concentration-dependent competition binding was observed
DNA fragmentation / apoptosis induction [2]: induced DNA fragmentation to various extents

COc1cc(C2c3cc4c(cc3OC(N3CCOCC3)C2C)OCO4)cc(OC)c1O (stereo not shown) [HA11-57, 2,6-DI-MEO-4-(7-ME-6-MORPHOLIN-4-YL-6H- [1,3]DIOXOLO[4,5-G]CHROMEN-8-YL)-PHENOL]
DNA fragmentation (reversal of Bcl-2 block of apoptosis) [3]: DNA fragmentation is apparent

O=C1Nc2ccccc2/C1=C/c1ccc[nH]1 [HA12-16]
DNA fragmentation / apoptosis induction ([2]; listed as HA01): induced DNA fragmentation to various extents; also recorded: induced apoptosis in the 697 cells
apoptosis induction in cells not regulated by Bcl-2 [4]: lack of effect in inducing apoptosis

CC(=O)c1cc(C(=O)c2ccccc2)n2ccc(Cc3ccc([N+](=O)[O-])cc3)cc12 [HA13]
DNA fragmentation (reversal of Bcl-2 block of apoptosis) [3]: DNA fragmentation is apparent

CCOC(=O)C1=C(N)Oc2ccc(Br)cc2C1C(C#N)C(=O)OCC (stereo not shown) [HA14-1, ETHYL 2-AMINO-6- BROMO-4-(1-CYANO-2- ETHOXY-2-OXOETHYL)- 4H-CHROMENE-3- CARBOXYLATE]
concentration-dependent competition binding [1]: clear concentration-dependent competition binding was observed
DNA fragmentation after fluoromethyl ketone pretreatment ([3]; 100 μM fluoromethyl ketone 2 hours, then 50 μM HA14-1 24 hours): neutralize the action of HA14-1

COC1OC2COC(c3ccccc3)O[C@H]2[C@@H](OC(C)=O)[C@H]1OS(=O)(=O)c1ccccc1 (stereo partly shown) [HA14]
DNA fragmentation (reversal of Bcl-2 block of apoptosis) [3]: DNA fragmentation is apparent

CC(=O)O[C@H]1C(=O)[C@@]2(C)[C@H]([C@H](OC(=O)c3ccccc3)[C@]3(O)C[C@H](OC(=O)[C@H](O)[C@@H](NC(=O)c4ccccc4)c4ccccc4)C(C)=C1C3(C)C)[C@]1(OC(C)=O)CO[C@@H]1C[C@@H]2O [Taxol]
apoptosis induction in 697 cells (known) [5]: known to induce apoptosis in 697 cells

COc1cc([C@@H]2c3cc4c(cc3[C@@H](O[C@@H]3O[C@@H]5CO[C@@H](C)O[C@H]5[C@H](O)[C@H]3O)[C@H]3COC(=O)[C@H]23)OCO4)cc(OC)c1O [etoposide]
sensitivity of Bcl-2-transfected cells to apoptosis-inducing drug [6]: resistant
sensitivity of cells to apoptosis-inducing drug [7]: sensitive

Reference: patent publication US6492389B1, “Small molecule inhibitors of BCL-2 proteins” (Thomas Jefferson University, priority 1998, dated 2002)
